According to patent US9133207B2, “Tetrandrine derivatives with substituted 5-carbon, preparation method and use thereof” (Hangzhou Bensheng Pharmaceutical Co., Ltd., priority 2011, dated 2015):
≈ marks a conversion by molar mass, not a printed value.

Experiments:
[1] = system: RPMI8226 (multiple myeloma); assay: Multiple myeloma cell growth inhibition, MTT, 72 h (Example 6); format: cell-based, human; conditions: Homo sapiens, RPMI-8226; 72 h, MTT, RPMI8226
In short: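 Viability was read by MTT after 72 h of compound exposure at 37 °C, 5% CO2. Each well held 6000 RPMI8226 cells in 1640 medium containing 10% fetal bovine serum, with derivatives added at various concentrations.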

[2] = system: MGC 803 (human gastric cancer cell); assay: Solid tumor cell growth inhibition, MTT, 72 h (Example 7); format: cell-based; conditions: Homo sapiens
In short: (§1)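 Viability (%) relative to compound-free controls (100%) comes from MTT measurement following 72 h drug exposure at 37 °C, 5% CO2. Seeding density: 4000 cells/well, 24 h before dosing.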

[3] = system: Becap37 (human breast cancer cell); assay: as above; format: cell-based; conditions: Homo sapiens; 72 h, MTT, Becap-37
In short: as §1

[4] = system: Huh7 (human liver cancer cell); assay: as above; format: cell-based; conditions: Homo sapiens; 72 h, MTT, Huh-7
In short: as §1

A549 (human lung cancer) = assay: as above; format: cell-based; conditions: Homo sapiens; 72 h, MTT, A549
In short: as §1

[5] = system: RKO (human colon adenocarcinoma cell); assay: as above; format: cell-based; conditions: Homo sapiens; 72 h, MTT, RKO
In short: as §1

[6] = system: PANC-1 (pancreatic cancer); assay: as above; format: cell-based, human; conditions: Homo sapiens; 72 h, MTT, PANC-1
In short: as §1

PC-3 (prostate cancer) = assay: as above; format: cell-based, human; conditions: Homo sapiens; 72 h, MTT, PC-3
In short: as §1

MG63 (osteosarcoma) = assay: as above; format: cell-based, human; conditions: Homo sapiens; 72 h, MTT, MG-63
In short: as §1

[7] = system: CaES-17 (esophageal cancer cell); assay: as above; format: cell-based, human; conditions: Homo sapiens, CaEs17; 72 h, MTT, CAES-17
In short: as §1

[8] = system: Kasumi-1 (acute myeloid leukemia M2 type, AML-M2); assay: Leukemia cell growth inhibition, MTT, 72 h (Example 5); format: cell-based, human; conditions: Homo sapiens, Kasumi 1
In short: (§2)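 An MTT read-out of viable cell concentration follows 72 h incubation (37° C, 5% CO2) of 6000 cells/well in 10% FBS-supplemented 1640 medium with the 5-substituted derivatives at varying concentrations.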

[9] = system: Jurkat (acute lymphoblastic leukemia, ALL); assay: as above; format: cell-based, human; conditions: Homo sapiens, Jurkat; 72 h, MTT
In short: as §2

[10] = system: K562/adr (drug-resistant, chronic myeloid leukemia, CML); assay: as above; format: cell-based, human; conditions: Homo sapiens, K562/Adr; 72 h, MTT
In short: as §2

[11] = system: NB4 (acute promyelocytic leukemia, AML); assay: as above; format: cell-based, human; conditions: Homo sapiens; 72 h, MTT
In short: as §2

[12] = system: H9 (acute lymphoblastic leukemia, ALL); assay: as above; format: cell-based, human; conditions: Homo sapiens; 72 h, MTT
In short: as §2

## COc1ccc2cc1Oc1ccc(cc1)C[C@H]1c3cc(c(OC)cc3CCN1C)Oc1c(OC)c(OC)c(CN3CCC(O)C3)c3c1[C@H](C2)N(C)CC3 (stereo partly drawn) [BS-TE-322]
[1]
  IC50: 0.14 µg/mL (≈ 0.194 µM)
  IC90: 0.7 µg/mL (≈ 0.97 µM)
[2]
  IC50: 2.29 µg/mL (≈ 3.17 µM)
  IC90: > 10 µg/mL
[3]
  IC50: 2.31 µg/mL (≈ 3.2 µM)
  IC90: 4 µg/mL (≈ 5.54 µM)
[4]
  IC50: 1.42 µg/mL (≈ 1.97 µM)
  IC90: 1.94 µg/mL (≈ 2.69 µM)
A549 (human lung cancer)
  IC50: 1.83 µg/mL (≈ 2.53 µM)
  IC90: 6.34 µg/mL (≈ 8.78 µM)
[5]
  IC50: 0.9 µg/mL (≈ 1.25 µM)
  IC90: 2.4 µg/mL (≈ 3.32 µM)
[6]
  IC50: 3.29 µg/mL (≈ 4.56 µM)
  IC90: 5.41 µg/mL (≈ 7.49 µM)
PC-3 (prostate cancer)
  IC50: 2.26 µg/mL (≈ 3.13 µM)
  IC90: 4.06 µg/mL (≈ 5.62 µM)
MG63 (osteosarcoma)
  IC50: 1 µg/mL (≈ 1.39 µM)
  IC90: 2.24 µg/mL (≈ 3.1 µM)
[7]
  IC50: 1.58 µg/mL (≈ 2.19 µM)
  IC90: 9.61 µg/mL (≈ 13.3 µM)
[8]
  IC50: 1.22 µg/mL (≈ 1.69 µM)
  IC90: 3.83 µg/mL (≈ 5.31 µM)
[9]
  IC50: 1.67 µg/mL (≈ 2.31 µM)
  IC90: 3.97 µg/mL (≈ 5.5 µM)
[10]
  IC50: 1.1 µg/mL (≈ 1.52 µM)
  IC90: 3.24 µg/mL (≈ 4.49 µM)
[11]
  IC50: 0.83 µg/mL (≈ 1.15 µM)
  IC90: 3.48 µg/mL (≈ 4.82 µM)
[12]
  IC50: 1.08 µg/mL (≈ 1.5 µM)
  IC90: 2.19 µg/mL (≈ 3.03 µM)

## COc1ccc2cc1Oc1ccc(cc1)C[C@H]1c3cc(c(OC)cc3CCN1C)Oc1c(OC)c(OC)c(CN3CCN(CCO)CC3)c3c1[C@H](C2)N(C)CC3 [BS-TE-334]
[1]
  IC50: 0.05 µg/mL (≈ 0.0654 µM)
  IC90: 1.11 µg/mL (≈ 1.45 µM)
[2]
  IC50: 2.22 µg/mL (≈ 2.9 µM)
  IC90: 10 µg/mL (≈ 13.1 µM)
[3]
  IC50: 3.09 µg/mL (≈ 4.04 µM)
  IC90: 8.39 µg/mL (≈ 11 µM)
[4]
  IC50: 2.55 µg/mL (≈ 3.33 µM)
  IC90: 4.38 µg/mL (≈ 5.73 µM)
A549 (human lung cancer)
  IC50: 4 µg/mL (≈ 5.23 µM)
  IC90: 14.6 µg/mL (≈ 19.1 µM)
[5]
  IC50: 0.82 µg/mL (≈ 1.07 µM)
  IC90: 2.04 µg/mL (≈ 2.67 µM)
[6]
  IC50: 3.99 µg/mL (≈ 5.22 µM)
  IC90: 11 µg/mL (≈ 14.4 µM)
PC-3 (prostate cancer)
  IC50: 3.35 µg/mL (≈ 4.38 µM)
  IC90: 6.05 µg/mL (≈ 7.91 µM)
MG63 (osteosarcoma)
  IC50: 0.84 µg/mL (≈ 1.1 µM)
  IC90: 2.44 µg/mL (≈ 3.19 µM)
[7]
  IC50: 2.35 µg/mL (≈ 3.07 µM)
  IC90: 21.5 µg/mL (≈ 28.1 µM)
[8]
  IC50: 1.06 µg/mL (≈ 1.39 µM)
  IC90: 3.64 µg/mL (≈ 4.76 µM)
[9]
  IC50: 1.88 µg/mL (≈ 2.46 µM)
  IC90: 7.85 µg/mL (≈ 10.3 µM)
[10]
  IC50: 1.49 µg/mL (≈ 1.95 µM)
  IC90: 5.99 µg/mL (≈ 7.83 µM)
[11]
  IC50: > 16 µg/mL
  IC90: > 16 µg/mL
[12]
  IC50: 1.3 µg/mL (≈ 1.7 µM)
  IC90: 2.4 µg/mL (≈ 3.14 µM)

## COCCCNCc1c2c3c(c(OC)c1OC)Oc1cc4c(cc1OC)CCN(C)[C@H]4Cc1ccc(cc1)Oc1cc(ccc1OC)C[C@@H]3N(C)CC2 [BS-TE-340]
[1]
  IC50: 0.18 µg/mL (≈ 0.249 µM)
  IC90: 0.999 µg/mL (≈ 1.38 µM)
[2]
  IC50: 2.34 µg/mL (≈ 3.23 µM)
  IC90: 5.54 µg/mL (≈ 7.65 µM)
[3]
  IC50: 1.99 µg/mL (≈ 2.75 µM)
  IC90: 4.12 µg/mL (≈ 5.69 µM)
[4]
  IC50: 2.52 µg/mL (≈ 3.48 µM)
  IC90: 4.85 µg/mL (≈ 6.7 µM)
A549 (human lung cancer)
  IC50: 2.36 µg/mL (≈ 3.26 µM)
  IC90: 6.66 µg/mL (≈ 9.2 µM)
[5]
  IC50: 1.29 µg/mL (≈ 1.78 µM)
  IC90: 2.45 µg/mL (≈ 3.38 µM)
[6]
  IC50: 3.61 µg/mL (≈ 4.99 µM)
  IC90: 5.72 µg/mL (≈ 7.9 µM)
PC-3 (prostate cancer)
  IC50: 3.43 µg/mL (≈ 4.74 µM)
  IC90: 4 µg/mL (≈ 5.53 µM)
MG63 (osteosarcoma)
  IC50: 0.6 µg/mL (≈ 0.829 µM)
  IC90: 1.19 µg/mL (≈ 1.64 µM)
[7]
  IC50: 1.83 µg/mL (≈ 2.53 µM)
  IC90: 7.21 µg/mL (≈ 9.96 µM)
[8]
  IC50: 0.66 µg/mL (≈ 0.912 µM)
  IC90: 1.8 µg/mL (≈ 2.49 µM)
[9]
  IC50: 2.24 µg/mL (≈ 3.09 µM)
  IC90: 4 µg/mL (≈ 5.53 µM)
[10]
  IC50: 0.98 µg/mL (≈ 1.35 µM)
  IC90: 2.39 µg/mL (≈ 3.3 µM)
[11]
  IC50: 1.07 µg/mL (≈ 1.48 µM)
  IC90: 2.87 µg/mL (≈ 3.96 µM)
[12]
  IC50: 1.93 µg/mL (≈ 2.67 µM)
  IC90: 3.23 µg/mL (≈ 4.46 µM)

## COc1ccc2cc1Oc1ccc(cc1)C[C@H]1c3cc(c(OC)cc3CCN1C)Oc1c(OC)c(OC)c(CN3CCN(c4ccccc4)CC3)c3c1[C@H](C2)N(C)CC3 [BS-TE-343]
[1]
  IC50: 0.05 µg/mL (≈ 0.0627 µM)
  IC90: 0.7 µg/mL (≈ 0.878 µM)
[2]
  IC50: 1.1 µg/mL (≈ 1.38 µM)
  IC90: 2.88 µg/mL (≈ 3.61 µM)
[3]
  IC50: 6.96 µg/mL (≈ 8.73 µM)
  IC90: 8.17 µg/mL (≈ 10.3 µM)
[4]
  IC50: 2.14 µg/mL (≈ 2.69 µM)
  IC90: 4.85 µg/mL (≈ 6.09 µM)
A549 (human lung cancer)
  IC50: 3.54 µg/mL (≈ 4.44 µM)
  IC90: 12 µg/mL (≈ 15 µM)
[5]
  IC50: 2.25 µg/mL (≈ 2.82 µM)
  IC90: 3.24 µg/mL (≈ 4.07 µM)
[6]
  IC50: 2.84 µg/mL (≈ 3.56 µM)
  IC90: 4.84 µg/mL (≈ 6.07 µM)
PC-3 (prostate cancer)
  IC50: 2.72 µg/mL (≈ 3.41 µM)
  IC90: 4.28 µg/mL (≈ 5.37 µM)
MG63 (osteosarcoma)
  IC50: 1.15 µg/mL (≈ 1.44 µM)
  IC90: 2.47 µg/mL (≈ 3.1 µM)
[7]
  IC50: 2.09 µg/mL (≈ 2.62 µM)
  IC90: 8.09 µg/mL (≈ 10.2 µM)
[8]
  IC50: 2.24 µg/mL (≈ 2.81 µM)
  IC90: 6.95 µg/mL (≈ 8.72 µM)
[9]
  IC50: 1.9 µg/mL (≈ 2.38 µM)
  IC90: 5.27 µg/mL (≈ 6.61 µM)
[10]
  IC50: 0.68 µg/mL (≈ 0.853 µM)
  IC90: 2.38 µg/mL (≈ 2.99 µM)
[11]
  IC50: 1.18 µg/mL (≈ 1.48 µM)
  IC90: 3.06 µg/mL (≈ 3.84 µM)
[12]
  IC50: 1.62 µg/mL (≈ 2.03 µM)
  IC90: 2.75 µg/mL (≈ 3.45 µM)

## COc1ccc2cc1Oc1ccc(cc1)C[C@H]1c3cc(c(OC)cc3CCN1C)Oc1c(OC)c(OC)c(CNCc3cccnc3)c3c1[C@H](C2)N(C)CC3 [BS-TE-348]
[1]
  IC50: 0.09 µg/mL (≈ 0.121 µM)
  IC90: 1 µg/mL (≈ 1.35 µM)
[2]
  IC50: 1.93 µg/mL (≈ 2.6 µM)
  IC90: 5.53 µg/mL (≈ 7.44 µM)
[3]
  IC50: 3.84 µg/mL (≈ 5.17 µM)
  IC90: 13.6 µg/mL (≈ 18.3 µM)
[4]
  IC50: 3.05 µg/mL (≈ 4.11 µM)
  IC90: 8 µg/mL (≈ 10.8 µM)
A549 (human lung cancer)
  IC50: 9.94 µg/mL (≈ 13.4 µM)
  IC90: > 16 µg/mL
[5]
  IC50: 1.77 µg/mL (≈ 2.38 µM)
  IC90: 3.83 µg/mL (≈ 5.16 µM)
[6]
  IC50: 4.55 µg/mL (≈ 6.12 µM)
  IC90: 13.9 µg/mL (≈ 18.7 µM)
PC-3 (prostate cancer)
  IC50: 4.44 µg/mL (≈ 5.98 µM)
  IC90: 8.36 µg/mL (≈ 11.3 µM)
MG63 (osteosarcoma)
  IC50: 1.52 µg/mL (≈ 2.05 µM)
  IC90: 4.06 µg/mL (≈ 5.46 µM)
[7]
  IC50: 2.3 µg/mL (≈ 3.1 µM)
  IC90: 14.5 µg/mL (≈ 19.6 µM)
[8]
  IC50: 1.96 µg/mL (≈ 2.64 µM)
  IC90: 7.37 µg/mL (≈ 9.92 µM)
[9]
  IC50: 1.82 µg/mL (≈ 2.45 µM)
  IC90: 9.94 µg/mL (≈ 13.4 µM)
[10]
  IC50: 1.45 µg/mL (≈ 1.95 µM)
  IC90: 5.7 µg/mL (≈ 7.67 µM)
[11]
  IC50: 1.14 µg/mL (≈ 1.53 µM)
  IC90: 4.78 µg/mL (≈ 6.43 µM)
[12]
  IC50: 1.33 µg/mL (≈ 1.79 µM)
  IC90: 2.97 µg/mL (≈ 4 µM)
